Laboratory results reported in patent US9604996B2 (Bayer Pharma Aktiengesellschaft, priority 2013, dated 2017).

target: T1, human adenosine A2b receptor (Homo sapiens, UniProt P29275); test: Cellular reporter gene (CRE-luciferase) A2b receptor antagonist assay in recombinant CHO-K1 cells stimulated with NECA; type: cell-based; settings: recombinant CHO-K1 cell line, co-incubation with EC50 concentration of NECA, 3 hours, in some cases means, rounded to two significant digits
T1 construct: expressed in transfected cells; host or cells: CHO-K1 (Chinese Hamster Ovary) with CRE-luciferase reporter
T1 sequence (P29275 1-332): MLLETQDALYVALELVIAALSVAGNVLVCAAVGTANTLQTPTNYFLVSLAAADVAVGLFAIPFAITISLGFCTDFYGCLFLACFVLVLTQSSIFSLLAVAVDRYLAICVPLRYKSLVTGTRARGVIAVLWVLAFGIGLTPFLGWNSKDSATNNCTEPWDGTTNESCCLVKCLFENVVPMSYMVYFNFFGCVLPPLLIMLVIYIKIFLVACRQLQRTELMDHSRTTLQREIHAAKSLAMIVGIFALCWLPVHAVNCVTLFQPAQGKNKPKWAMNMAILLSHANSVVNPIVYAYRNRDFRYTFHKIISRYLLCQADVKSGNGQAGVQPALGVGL
Description: B-1. Cellular In Vitro Tests for Determining A2b Receptor Activity and Adenosine Receptor Selectivity
The identification of selective antagonists of the human adenosine A2b receptor and the quantification of the efficacy and selectivity of the compounds according to the invention was carried out with the aid of recombinant cell lines for the human adenosine receptors A1, A2a, A2b and A3. These cell lines were originally derived from an ovarepithelial cell of the hamster (Chinese Hamster Ovary, CHO-K1, American Type Culture Collection, Manassas, Va. 20108, USA). In addition to the respective recombinantly expressed adenosine receptor for testing the efficacy at the A1, A2a and A2b receptors, the cell lines contain a reporter gene construct where expression of the firefly (Photinus pyralis) luciferase is under the control of a promoter which can be activated via intracellular signal cascades by stimulation of the receptors with the (not subtype-selective) adenosine receptor agonist NECA (5′-N-ethylcarboxamidoadenosine) [S. J. Hill, J. G. Baker, S. Rhees, Curr. Opin. Pharmacol. 1, 526-532 (2001)].
In the case of the A2a and A2b cell lines, this is a minimal promoter having a plurality of cAMP-responsive elements (CRE). Stimulation of the Gs coupled A2b or A2a receptors by NECA ultimately leads, via formation of cAMP, to CRE-dependent induction of luciferase expression, which is detected 3 hours after the start of the incubation with NECA using a detection solution in a suitable luminometer. For testing the antagonists, initially, in a pre-experiment, the concentration of NECA which, at the test day in question, results in half-maximum stimulation of luciferase expression (EC50 concentration) is determined By joint incubation of this EC50 concentration of NECA with the substances to be tested, it is possible to determine their antagonistic activity.

IC50 | SMILES
220 nM | CCn1c(=O)c2c(C)c(C(=O)N3CCNC(=O)C3C)sc2n(CCC(F)(F)F)c1=O (racemic) [Example 39, 3-Ethyl-5-methyl-6-[(2-methyl-3-oxopiperazin-1-yl)carbonyl]-1-(3,3,3-trifluoropropyl)thieno[2,3-d]pyrimidine-2,4(1H,3H)-dione (racemate)]
230 nM | CCC1C(=O)NCCN1C(=O)c1sc2c(c1C)c(=O)n(CC)c(=O)n2CCC(F)(F)F (racemic) [Example 40, 3-Ethyl-6-[(2-ethyl-3-oxopiperazin-1-yl)carbonyl]-5-methyl-1-(3,3,3-trifluoropropyl)thieno[2,3-d]pyrimidine-2,4(1H,3H)-dione (racemate)]
6.3 nM | Cc1c(C(=O)N2CCC(O)CC2)sc2c1c(=O)n(CC(C)c1ccccc1)c(=O)n2CCC(F)(F)F (racemic) [Example 43, 6-[(4-Hydroxypiperidin-1-yl)carbonyl]-5-methyl-3-(2-phenylpropyl)-1-(3,3,3-trifluoropropyl)thieno[2,3-d]pyrimidine-2,4(1H,3H)-dione (racemate)]
7.9 nM | COC(Cn1c(=O)c2c(C)c(C(=O)N3CCC(O)CC3)sc2n(CCC(F)(F)F)c1=O)c1ccccc1 (racemic) [Example 46, 6-[(4-Hydroxypiperidin-1-yl)carbonyl]-3-(2-methoxy-2-phenylethyl)-5-methyl-1-(3,3,3-trifluoropropyl)thieno[2,3-d]pyrimidine-2,4(1H,3H)-dione (racemate)]
370 nM | CCn1c(=O)c2c(C)c(C(=O)N3CCC(O)CC3)sc2n(CC2CC2(F)F)c1=O (racemic) [Example 59, 1-[(2,2-Difluorocyclopropyl)methyl]-3-ethyl-6-[(4-hydroxypiperidin-1-yl)carbonyl]-5-methylthieno[2,3-d]pyrimidine-2,4(1H,3H)-dione (racemate)]
96 nM | COC(C)Cn1c(=O)c2c(C)c(C(=O)N3CCC(O)CC3)sc2n(CCC(F)(F)F)c1=O (racemic) [Example 65, 6-[(4-Hydroxypiperidin-1-yl)carbonyl]-3-(2-methoxypropyl)-5-methyl-1-(3,3,3-trifluoropropyl)thieno[2,3-d]pyrimidine-2,4(1H,3H)-dione (racemate)]
280 nM | COC(Cn1c(=O)c2c(C)c(C(=O)N3CCC(O)CC3)sc2n(CCC(F)(F)F)c1=O)C(F)(F)F (racemic) [Example 66, 6-[(4-Hydroxypiperidin-1-yl)carbonyl]-5-methyl-3-(3,3,3-trifluoro-2-methoxypropyl)-1-(3,3,3-trifluoropropyl)thieno[2,3-d]pyrimidine-2,4(1H,3H)-dione (racemate)]
170 nM | COC(Cn1c(=O)c2c(C)c(C(=O)N3CCC(O)(CO)CC3)sc2n(CCC(F)(F)F)c1=O)C(F)(F)F (racemic) [Example 81, 6-{[4-Hydroxy-4-(hydroxymethyl)piperidin-1-yl]carbonyl}-5-methyl-3-(3,3,3-trifluoro-2-methoxypropyl)-1-(3,3,3-trifluoropropyl)thieno[2,3-d]pyrimidine-2,4(1H,3H)-dione]
9.1 nM | Cc1c(C(=O)N2CCC(O)CC2)sc2c1c(=O)n(CC(c1ccccc1)C(F)(F)F)c(=O)n2CCC(F)(F)F (racemic) [Example 104, 6-[(4-Hydroxypiperidin-1-yl)carbonyl]-5-methyl-3-(3,3,3-trifluoro-2-phenylpropyl)-1-(3,3,3-trifluoropropyl)thieno[2,3-d]pyrimidine-2,4(1H,3H)-dione]
69 nM | Cc1c(C(=O)N2CCC(O)CC2)sc2c1c(=O)n(CC(C)(O)c1ccccc1)c(=O)n2CCC(F)(F)F (racemic) [Example 105, 3-(2-Hydroxy-2-phenylpropyl)-6-[(4-hydroxypiperidin-1-yl)carbonyl]-5-methyl-1-(3,3,3-trifluoropropyl)thieno[2,3-d]pyrimidine-2,4(1H,3H)-dione]
200 nM | CCn1c(=O)c2c(C)c(C(=O)N3CCC(O)C(O)C3)sc2n(CCC(F)(F)F)c1=O (racemic) [Example 116, 6-[(3,4-Dihydroxypiperidin-1-yl)carbonyl]-3-ethyl-5-methyl-1-(3,3,3-trifluoropropyl)thieno [2,3-d]pyrimidine-2,4(1H,3H)-dione]
210 nM | CCn1c(=O)c2c(C)c(C(=O)N3CCC(O)C(O)C3)sc2n(CCC(F)(F)F)c1=O (racemic) [Example 119, 6-[(3,4-Dihydroxypiperidin-1-yl)carbonyl]-3-ethyl-5-methyl-1-(3,3,3-trifluoropropyl)thieno [2,3-d]pyrimidine-2,4(1H,3H)-dione]
97 nM | CCn1c(=O)c2c(C(C)F)c(C(=O)N3CCC(O)CC3)sc2n(CCC(F)(F)F)c1=O (racemic) [Example 145, 3-Ethyl-5-(1-fluoroethyl)-6-[(4-hydroxypiperidin-1-yl)carbonyl]-1-(3,3,3-trifluoropropyl)thieno[2,3-d]pyrimidine-2,4(1H,3H)-dione]
40 nM | CCn1c(=O)c2c(C(C)F)c(C(=O)N3CCC(C)(O)CC3)sc2n(CCC(F)(F)F)c1=O (racemic) [Example 146, 3-Ethyl-5-(1-fluoroethyl)-6-[(4-hydroxy-4-methylpiperidin-1-yl)carbonyl]-1-(3,3,3-trifluoropropyl)thieno[2,3-d]pyrimidine-2,4(1H,3H)-dione]
100 nM | CCn1c(=O)c2c(C(C)F)c(C(=O)N3CCNC(=O)C3)sc2n(CCC(F)(F)F)c1=O (racemic) [Example 147, 3-Ethyl-5-(1-fluoroethyl)-6-[(3-oxopiperazin-1-yl)carbonyl]-1-(3,3,3-trifluoropropyl)thieno[2,3-d]pyrimidine-2,4(1H,3H)-dione]
29 nM | Cc1c(C(=O)N2CCC(O)CC2)sc2c1c(=O)n(CC(O)c1ccccc1)c(=O)n2CCC(F)(F)F (single isomer, unassigned) [Example 100, 3-(2-Hydroxy-2-phenylethyl)-6-[(4-hydroxypiperidin-1-yl)carbonyl]-5-methyl-1-(3,3,3-trifluoropropyl)thieno[2,3-d]pyrimidine-2,4(1H,3H)-dione]
1200 nM | Cc1c(C(=O)N2CCC(O)CC2)sc2c1c(=O)n(CC(O)c1ccccc1)c(=O)n2CCC(F)(F)F (single isomer, unassigned) [Example 101, 3-(2-Hydroxy-2-phenylethyl)-6-[(4-hydroxypiperidin-1-yl)carbonyl]-5-methyl-1-(3,3,3-trifluoropropyl)thieno[2,3-d]pyrimidine-2,4(1H,3H)-dione]
3.6 nM | Cc1c(C(=O)N2CCC(O)CC2)sc2c1c(=O)n(CC(F)c1ccccc1)c(=O)n2CCC(F)(F)F (single isomer, unassigned) [Example 102, 3-(2-Fluoro-2-phenylethyl)-6-[(4-hydroxypiperidin-1-yl)carbonyl]-5-methyl-1-(3,3,3-trifluoropropyl)thieno [2,3-d]pyrimidine-2,4(1H,3H)-dione]
16 nM | Cc1c(C(=O)N2CCC(O)CC2)sc2c1c(=O)n(CC(F)c1ccccc1)c(=O)n2CCC(F)(F)F (single isomer, unassigned) [Example 103, 3-(2-Fluoro-2-phenylethyl)-6-[(4-hydroxypiperidin-1-yl)carbonyl]-5-methyl-1-(3,3,3-trifluoropropyl)thieno[2,3-d]pyrimidine-2,4(1H,3H)-dione]
